# Experimental data reported in patent publication US20240216336A1, “CLOTRIMAZOLE AS A TREATMENT FOR IMMUNODEFICIENCY DISORDERS” (Northwestern University, priority 2020, published 2024).
# What was measured:
# BMDMs from ΔE1HK1 mice = experiment: IL-1β ELISA from BMDM media; format: cell-based, mouse; conditions: 4 hrs LPS (200 ng/ml) ± 6AN (1 mM) or OT (50 μM), then 30 min ATP (2.5 mM)
# Protocol: (§1) BMDMs were isolated from ΔE1HK1 and WT mice as previously reported (Rodriguez et al., 2019). Briefly, bone marrow was isolated from the tibia and femur of 8-10-week-old mice by puncturing one end of the femur and tibia with a 27g needle and placing it in a 0.5 ml tube with a hole punched in the bottom. The 0.5 ml tube containing the bone was then placed in a 1.75 ml tube and centrifuged at 5,000×g for 3.5 minutes. Bone marrow was then collected into the 1.75 ml tube and resuspend in 1 ml of RBC lysis buffer (abcam) for 1 minute and then transferred to a 50 ml tube with 4 ml RBC lysis buffer and incubated for 4 minutes. Next, 35 ml of PBS was added and centrifuged at 300×g for 5 min and supernatant was then decanted and cell pellet was re-suspended in complete RPMI with 20 ng/ml mCSF (Preprotech). Cells were counted using a hemocytometer and plated in 10 cm tissue culture plates at a density of 3-million cells/plate. […]
# […] Cell supernatant was collected and analyzed by ELISA according to manufacturer's instructions for IL-1β (DY401), IL-6 (DY406), and TNFα (DY410).
# (§2) The following kits were used according to the manufacturer's instructions: Promega NADP/NADPH quantification kit (G9081) and […] (G9071); Glyceraldehyde-3-Phosphate Dehydrogenase Activity Assay kit (abcam); ELISAs for IL-1β (DY401), IL-6 […].
# BMDMs [1] = experiment: Inflammatory cytokine mRNA expression (quantitative RT-PCR) in BMDMs; format: cell-based, mouse
# Protocol: BMDMs were isolated from ΔE1HK1 and WT mice as previously reported (Rodriguez et al., 2019). Briefly, bone marrow was isolated from the tibia and femur of 8-10-week-old mice by puncturing one end of the femur and tibia with a 27g needle and placing it in a 0.5 ml tube with a hole punched in the bottom. The 0.5 ml tube containing the bone was then placed in a 1.75 ml tube and centrifuged at 5,000×g for 3.5 minutes. Bone marrow was then collected into the 1.75 ml tube and resuspend in 1 ml of RBC lysis buffer (abcam) for 1 minute and then transferred to a 50 ml tube with 4 ml RBC lysis buffer and incubated for 4 minutes. Next, 35 ml of PBS was added and centrifuged at 300×g for 5 min and supernatant was then decanted and cell pellet was re-suspended in complete RPMI with 20 ng/ml mCSF (Preprotech). Cells were counted using a hemocytometer and plated in 10 cm tissue culture plates at a density of 3-million cells/plate. Cells were cultured with 20 ng/mL mCSF to induce differentiation into BMDMs. Media was changed every 2 days and BMDMs were harvested by scraping on day 6 and plated in 12 well plates at a density of 1-million cells/well for mRNA extraction experiments. BMDMs were stimulated in the same manner as peritoneal macrophages (LPS dose for BMDMs was 200 ng/ml).
# (§3) RNA was isolated from cells or tissues using RNA-STAT60 (Teltest) followed by chloroform extraction and precipitation. Reverse transcription was carried out using qScript cDNA Synthesis Kit (Quanta Bio). The resulting cDNA was amplified quantitatively using PerfeCTa SYBR Green Mix (Quanta Bio) on a 7500 Fast Real-time PCR System (Applied Biosystems). The relative gene expression was determined using differences in Ct values between gene of interest and house-keeping control genes. Complete list of primers can be found in Key Reagents Table (Table 1).
# ΔE1HK1 mice = experiment: In vivo LPS i.p. injection with 1400W: splenic mRNA and serum ELISA of inflammatory cytokines; parameters: species or system mouse; conditions: LPS (15 mg/kg) i.p. + 1400W (10 mg/kg) i.p.
# Protocol: as §3
# LPS induced sepsis model in mice was approved by Northwestern University Institutional Animal Care and Use Committee. For short term LPS induced cytokine quantification, C57/B16 mice (aged 10-12 weeks) were treated i.p. with or without 1400W (10 mg/kg) for 2 hrs prior to i.p. treatment with ultrapure 05:B55 LPS from Invivogen (15 mg/kg) i.p. for 4 hours. Whole blood samples were harvested via cardiac puncture after mice were euthanized. Cytokine production in serum from whole blood was measured using the Mouse IL-1β (DY401), IL-6 (DY406), and TNFα (DY410) ELISAs from R&D. For survival studies, Crude 05:B55 LPS (Sigma) was administrated i.p. at a sub-lethal dose of 15 mg/kg and mice were monitored over 72 hrs, every 2-4 hrs for survival and signs of deterioration to determine humane endpoints (Shrum et al., 2014).
# GAPDH [2] = molecular target: T1, GAPDH (Mus musculus, UniProt P16858); experiment: GAPDH activity normalized to total protein in BMDMs; format: cell-based; parameters: endogenous in cells
# T1 sequence (P16858 whole entry): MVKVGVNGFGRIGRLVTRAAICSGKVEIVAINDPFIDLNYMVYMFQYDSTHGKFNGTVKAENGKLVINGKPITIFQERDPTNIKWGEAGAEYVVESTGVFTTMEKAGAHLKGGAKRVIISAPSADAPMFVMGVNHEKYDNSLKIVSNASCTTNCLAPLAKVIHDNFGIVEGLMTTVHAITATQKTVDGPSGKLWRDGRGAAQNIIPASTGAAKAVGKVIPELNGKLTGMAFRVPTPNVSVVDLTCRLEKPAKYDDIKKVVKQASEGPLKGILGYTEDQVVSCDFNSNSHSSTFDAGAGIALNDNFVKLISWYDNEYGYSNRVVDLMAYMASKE
# Protocol: as §1, with “cells/plate. Cells were cultured with 20 ng/mL mCSF to induce differentiation into BMDMs.” for “cells/plate.”
# as §2
# GAPDH [3] = experiment: GAPDH IP and TMT switch S-nitrosylation western blot in BMDMs; format: cell-based, mouse; conditions: LPS (200 ng/ml) treated BMDMs ±1400W
# Protocol: GAPDH immunoprecipitation of HepG2 and BMDM cells was performed and nitrosylated cysteines were replaced with covalent binding of TMT using Pierce S-Nitrosylation western blot kit according to manufactures protocol. Briefly, free cysteines were blocked with MMTS reagent, lysates were treated with iodoTMT/ascorbate to induce replacement of unstable S-NO with stable S-TMT moiety. Western blot was then run on the TMT-replaced lysates and probed with GAPDH (dilution 1:8,000) and anti-TMT (dilution 1:1000).
# PMs = experiment: IL-1β ELISA from media of PMs from NC and HFD mice; format: cell-based, mouse; conditions: LPS (300 ng/ml) 6 hrs and ATP (2.5 mM) 30 min, 1400W
# GAPDH [4] = experiment: GAPDH activity normalized to total protein in PMs from NC and HFD mice; format: cell-based, mouse; conditions: LPS (300 ng/ml) + 1400W (50 μM) for 4 hrs
# Protocol: Peritoneal macrophages were isolated from 8-10-week-old ΔE1HK1 and littermate control WT mice by peritoneal lavage as described previously (Ray and Dittel, 2010). Briefly, mice were euthanized and the peritoneal cavity was injected with PBS supplemented with 5% FBS using a 27g needle. The abdominal wall was gently agitated to dislodge peritoneal cells. Using a fresh 25g needle, the peritoneal lavage (PBS and peritoneal cells) was aspirated and collected. Cells were then centrifuged at 500 g for 10 min and re-suspended in 1 mL of complete RPMI (Corning) supplemented with 10% FBS (Atlanta Biologicals), 2 mM glutamine (HyClone), 1 mM HEPES (Corning) and 1 mM pyruvate (Corning). Stimulation with LPS (Invivogen) was performed the next day. 300 ng/ml of LPS was given to the cells for 4-6 hrs with or without the following drugs; OT (50 μM), 6-AN (1 mM), 1400W (50 μM), or CGP3466 (50 nM).
# as §2
# BMDMs [5] = experiment: Seahorse ECAR trace of BMDMs; format: cell-based, mouse; conditions: 5 hrs LPS (200 ng/ml) ±1400W (50 μM)
# Protocol: The day before the assay, the Seahorse cartridge was placed in the XF calibrant and incubated overnight at 37° C. On the day of the assay, cells were seeded into the Seahorse 96-well plate at 15,000 cells/80 μl per well for HepG2 cells or 100,000 cells/80 μl per well for BMDMs. The plates were incubated at RT for 1 hour in glucose free complete DMEM or RPMI without bicarbonate or phenol-red to allow even distribution of cells across the well floor. Before placing the sample plates in the Seahorse XF96 Analyzer, medium volume was adjusted to 175 μl in each well. 11 mM or 25 mM glucose for HepG2 cells or BMDMs respectively, Oligomycin at 2 μM, CCCP at 10 μM, and 2DG at […] each, diluted in DMEM, were injected sequentially into each well including control wells, containing only medium, following the standard Seahorse protocol. For acute injection of LPS, the first port of the drug cartridge was replaced with LPS at 200 ng/ml.
# RAW264.7 cells = experiment: Inflammatory cytokine mRNA expression (quantitative RT-PCR) in RAW264.7 cells; format: cell-based, mouse; conditions: ±LPS (200 ng/ml) and ±CGP3466 for 4 hrs
# Protocol: (§4) RAW264.7 cells were a gift from Jason A. Wertheim MD, PhD. HepG2 and HEK293T cells were obtained from ATCC. RAW264.7, HEK293T, and HepG2 cells were cultured in Dulbecco's Modified Eagle's Medium (DMEM) (Corning) supplemented with 10% FBS (Atlanta Biologicals), 2 mM glutamine (HyClone), and 1 mM sodium pyruvate (Corning). […]
# as §3
# GAPDH [6] = molecular target: T1, GAPDH; experiment: GAPDH activity normalized to total protein in RAW264.7 cells; format: cell-based; parameters: endogenous in cells; host or cells: RAW264.7; conditions: LPS (200 ng/ml) ±CGP3466
# Protocol: as §4, §2
# [7] = 4 hr 6AN (1 mM) or OT (50 μM), ±LPS (200 ng/ml)
# [8] = 16 hrs IFNγ priming, then 4 hrs LPS (200 ng/ml) ± 6AN (1 mM) or OT (50 μM)
# [9] = 4 hrs LPS (200 ng/ml) + 1400W (50 μM)
compound,measurement,setting,value
"NC(=O)c1ccc(N)nc1 [6AN, 6-aminonicotinamide]","IL-1β protein release (ELISA), higher release in ΔE1HK1 BMDMs",BMDMs from ΔE1HK1 mice,reversed
same,increase in IL-1β mRNA levels in BMDMs of ΔE1HK1 mice,BMDMs [1]; [7],abolished
same,increase in IL-6 mRNA levels in BMDMs of ΔE1HK1 mice,BMDMs [1]; [7],abolished
same,increase in IL-1β mRNA levels in IFN-γ primed BMDMs of ΔE1HK1 mice,BMDMs [1]; [8],rescued
same,increase in IL-6 mRNA levels in IFN-γ primed BMDMs of ΔE1HK1 mice,BMDMs [1]; [8],rescued
CC(N)=NCc1cccc(CN)c1.Cl.Cl [1400W],"hyper-inflammatory response in ΔE1HK1 mice, serum ELISA IL-1β",ΔE1HK1 mice,rescue
same,"hyper-inflammatory response in ΔE1HK1 mice, serum ELISA IL-6",ΔE1HK1 mice,rescue
same,"hyper-inflammatory response in ΔE1HK1 mice, serum ELISA TNFα",ΔE1HK1 mice,rescue
same,"hyper-inflammatory response in ΔE1HK1 mice, splenic IL-1β mRNA",ΔE1HK1 mice,rescue
same,"hyper-inflammatory response in ΔE1HK1 mice, splenic IL-6 mRNA",ΔE1HK1 mice,rescue
same,"hyper-inflammatory response in ΔE1HK1 mice, splenic TNFα mRNA",ΔE1HK1 mice,rescue
same,GAPDH activity of ΔE1HK1 BMDMs,GAPDH [2]; LPS (200 ng/ml) + 1400W (50 μM),restored to WT levels
same,"hyper-inflammatory response of ΔE1HK1 BMDMs, IL-1β mRNA",BMDMs [1]; [9],reversal
same,"hyper-inflammatory response of ΔE1HK1 BMDMs, IL-6 mRNA",BMDMs [1]; [9],reversal
same,"hyper-inflammatory response of ΔE1HK1 BMDMs, TNFα mRNA",BMDMs [1]; [9],reversal
same,higher GAPDH nitrosylation in BMDMs from ΔE1HK1 mice,GAPDH [3],reversible
same,elevation in IL-1β in HFD PMs (ELISA),PMs,reversed
same,lower GAPDH activity in PMs of HFD mice,GAPDH [4],rescued
same,differences in ECAR between ΔE1HK1 and WT BMDMs,BMDMs [5],eliminated the differences
"C#CCN(C)CC1=Cc2ccccc2Oc2ccccc21.O=C(O)/C=C\C(=O)O [CGP3466, CGP 3466 maleate (CAS 200189-97-5)]",increase in IL-1β mRNA with LPS in RAW264.7 cells,RAW264.7 cells,amplified
same,GAPDH activity in RAW264.7 cells,GAPDH [6],decreased
same,difference in GAPDH activity of BMDMs between WT and ΔE1HK1 mice,GAPDH [2]; ±CGP3466 for 4 hrs,abolished
same,IL-1β mRNA expression in WT BMDMs,"BMDMs [1]; ±LPS and ±CGP3466 for 4 hrs, compared with ΔE1HK1 BMDMs",increased IL-1β mRNA expression in WT BMDMs to the level of the hyper-inflamed ΔE1HK1 BMDMs
